Data: patent US20080242688A1, “Method 741” (ASTRAZENECA AB, priority 2007, published 2008)
Where “and” joins values, the source holds several entries; their conditions need not be identical. Equal values may be shown once.

Assays:
[1] = Cardiovascular/ECG telemetry in dogs; assay type: in vivo; settings: in vivo, dog, low dose group, read-out: total Cmax
Experimental: (§1) The cardiovascular effects of orally administered AZD0328 were assessed dogs implanted with telemetry transmitters (Table 3). The main purpose of the study was to evaluate effects on the QT interval of the ECG during a 7-days dosing period followed by 5 days of recovery, thus enabling assessment of any accumulation of effects and the recovery back to baseline. Systolic, diastolic and mean arterial blood pressure, heart rate, lead II ECG and core body temperature were recorded continuously. The PR, QRS and QT intervals of the ECG were measured, and the QT interval was corrected for changes in heart rate using the method of Van de Water (QTcV).

dogs = assay: Cardiovascular/ECG telemetry in dogs; assay type: in vivo; settings: dog, oral
Experimental: as §1

α7 receptor = α7 receptor (Rattus norvegicus, UniProt Q05941); assay: FFX hippocampal slice fEPSP, LTP; assay type: cell-based; settings: 10 μM
α7 receptor, sequence (Q05941 23-502): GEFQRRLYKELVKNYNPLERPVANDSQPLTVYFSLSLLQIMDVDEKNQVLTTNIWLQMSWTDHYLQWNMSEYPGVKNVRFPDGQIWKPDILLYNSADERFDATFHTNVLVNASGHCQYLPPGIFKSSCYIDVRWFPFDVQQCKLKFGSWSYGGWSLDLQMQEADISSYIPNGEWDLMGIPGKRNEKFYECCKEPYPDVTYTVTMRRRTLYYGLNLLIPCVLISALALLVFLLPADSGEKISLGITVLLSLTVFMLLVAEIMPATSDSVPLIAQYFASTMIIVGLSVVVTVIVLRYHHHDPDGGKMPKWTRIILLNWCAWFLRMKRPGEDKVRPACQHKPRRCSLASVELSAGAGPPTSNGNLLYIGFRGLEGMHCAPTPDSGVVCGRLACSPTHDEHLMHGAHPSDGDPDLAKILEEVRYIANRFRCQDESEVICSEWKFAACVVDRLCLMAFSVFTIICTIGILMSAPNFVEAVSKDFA
From the text: In membranes prepared either from cultured, human recombinant α7 receptor-expressing, human embryonic kidney cells α7-HEK) or from rat brain hippocampus, AZD0328 competed with binding of an iodinated form of the high-affinity, selective α7 receptor antagonist snake toxin, [^125I]-α-bungarotoxin (BTX) (Table 1). In Xenopus oocytes injected with human, recombinant α7 receptor mRNA, AZD0328 activates whole cell currents (Table 2). […] In acutely dissociated rat hippocampal interneurons, AZD0328 elicits rapidly activated, desensitizing whole-cell current (Table 1), consistent with the known properties of rat neuronal α7 receptors. […] AZD0328 modulates synaptic function, consistent with the well-known role of α7 receptors as heteroreceptor modulators of glutamatergic and GABAergic synaptic function.

[2] = Multiple dose PK/TK, minipig; assay type: in vivo; settings: capsules fasted; for AUC / Cmax / Tmax: both sexes, Gottingen, minipig, in vivo, po
From the text: (§2) This section provides a summary of the pharmacokinetic and metabolism properties of AZD0328 derived from in vivo studies. […] The derived PK/TK parameters from these studies are presented in Table 4 for single dose studies (DMR4, 0619LR, 20030191PCR, DMO16, DMB10, DMW12, 50190, 0190DD and 03.330/1), and are presented in Table 5 multiple dose PK/TK studies (DMR4, 0612AR, DMB15, 50190, 0190DD and 0295AD).

[3] = Single dose PK/TK, minipig; assay type: in vivo
From the text: as §2

[4] = Single dose PK/TK, rhesus monkey; assay type: in vivo; settings: for half-life: read-out: T½ (converted); for Vd: read-out: Vss
Experimental: Pharmacokinetic studies in rats and monkeys were used to estimate the plasma concentrations associated with doses at which AZD0328 improved cognitive performance in these species. For example, in rhesus monkeys, two studies were conducted to determine the pharmacokinetic profile of AZD0328 after administration of 0.048 and 1.7 mg per kg AZD0328. […] We thus estimated the peak plasma concentrations in monkeys that received AZD0328 at 0.00048-0.016 mg per kg to be 0.6-18 nM. Similar studies and calculations in rats, when extended to mice, led us to estimate plasma concentrations at 0.001-0.1 mg per kg body weight to be 0.29-100 nM in these species.
as §2

rhesus monkeys = assay: Spatial delayed response (SDR) task; assay type: in vivo, rhesus monkey
From the text: AZD0328 at low doses improved performance in the spatial delayed response test in monkeys. Rhesus monkeys were trained in a spatial delayed response task. In this task, food-motivated monkeys observed one of several spatially-displaced wells being baited with a food reward. After a brief delay during which a shutter is drawn and the wells are covered, the monkey must indicate the position of the baited well to receive the food reward. The performance of groups of monkeys was titrated into a narrow range by changing the number of wells or the duration of the delay. Monkeys were tested extensively to establish baseline performance before being administered drug or vehicle. Intramuscular administration of 0.00048 or 0.0016 mg/kg AZD0328 evoked a sustained increase in the percentage of correct responses monkeys made when compared with responses of vehicle-treated monkeys. […] Higher doses (≧0.016 mg/kg or higher) and lower doses (≦0.00016 mg/kg) had either no effect on monkeys or transiently impaired their performance of the task.
Rhesus monkey were trained in a spatial delayed response task. Middle doses of AZD0328 (0.0016 and 0.00048 mg/kg im) evoked a sustained improvement in rhesus monkey performance, while a higher dose (0.48 mg/kg) and a lower dose (0.000016 mg/kg) transiently impaired performance of the task (Table 2).

Ames test = assay: Ames test
From the text: The genotoxic potential of AZD0328 has been evaluated in the Ames test and in the Mouse lymphoma test. AZD0328 was not mutagenic in either of these tests.

[5] = 73.1 mg/kg, minipig 2F+2M, 50190, 73.1 mg/kg (338 μmol/kg), day 1
[6] = 73.1 mg/kg, minipig 2F+2M, 50190, 73.1 mg/kg (338 μmol/kg), day 7
[7] = 422 mg/kg, minipig 2F+2M, 50190, 422 mg/kg (1951 μmol/kg), day 7
[8] = both sexes, Gottingen, in vivo, minipig 2M+2F, 50190, single oral 73.1 mg/kg (338 μmol/kg), capsules, fasted
[9] = both sexes, Gottingen, in vivo, minipig 2M+2F, 50190, single oral 563 mg/kg (2602 μmol/kg), capsules, fasted
[10] = male, Gottingen, in vivo, minipig 3M, DMW12, single oral 16.9 mg/kg (78.1 μmol/kg), solution, fed
[11] = both sexes, in vivo, rhesus monkey 2M+2F, 03.330/1, iv 1.15 mg/kg (5.32 μmol/kg)
[12] = both sexes, in vivo, rhesus monkey 2M+2F, 03.330/1, iv 3.85 mg/kg (17.8 μmol/kg)
[13] = both sexes, plasma, im, rhesus monkey 2F+2M, A7AGBU1006, intramuscular 1.7 mg/kg (8 μmol/kg)
[14] = both sexes, plasma, rhesus monkey 2M+2F, 03.330/1, iv 0.385 mg/kg (1.78 μmol/kg)
[15] = male, plasma, im, rhesus monkey 3M, A7AGBU1010, intramuscular 0.048 mg/kg (0.22 μmol/kg)

With `c1cnc2c(c1)C[C@@]1(CN3CCC1CC3)O2` [AZD0328, (R)-Spiro[1-azabicyclo[2.2.2]octane-3,2′(3′H)-furo[2,3-b]pyridine]] the Cmax ([1]; oral, day 7 (lowest)) was 800 nM, the Cmax ([1]; po, day 4) was 1500 nM and the “single dose followed by frequent vomiting” value (dogs) was 17.3 mg/kg and 34.6 mg/kg. The “fEPSP LTP” value (α7 receptor) was 153 % baseline, the AUC [2, 5] was 3140 ng·h/mL and 14.5 µM·h and the Cmax [2, 5] was 379 ng/mL and 1.75 µM. For the same compound, the Tmax [2, 5] was 2 to 6 h, the AUC [2, 6] was 4610 ng·h/mL and 21.3 µM·h and the Cmax [2, 6] was 794 ng/mL and 3.67 µM. The Tmax [2, 6] was 0.5 to 4 h, the AUC [2, 7] was 25700 ng·h/mL to 27700 ng·h/mL and 119 µM·h to 128 µM·h and the Cmax [2, 7] was 1420 ng/mL to 1570 ng/mL and 6.57 µM to 7.24 µM. For the same compound, the Tmax [2, 7] was 12 h, the AUC/dose ([2]; minipig 2F+2M, 50190, 73.1 mg/kg (338 μmol/kg), day 1) was 0.0429 ± 0.0275 and the AUC/dose ([2]; minipig 2F+2M, 50190, 73.1 mg/kg (338 μmol/kg), day 7) was 0.0630 ± 0.0288. The AUC/dose ([2]; minipig 2F+2M, 50190, 422 mg/kg (1951 μmol/kg), day 7) was 0.0610-0.0656, the AUC [3, 8] was 3140 ng·h/mL and 14.5 µM·h and the Cmax [3, 8] was 379 ng/mL and 1.75 µM. For the same compound, the Tmax [3, 8] was 2 to 6 h, the AUC [3, 9] was 18200 ng·h/mL and 84.2 µM·h and the Cmax [3, 9] was 1910 ng/mL and 8.84 µM. It also gave a Tmax [3, 9] of 12 h, a clearance ([3]; male, Gottingen, in vivo, minipig 3M, DMW12, iv 8.5 mg/kg (39.3 μmol/kg)) of 35.5 mL/min/kg and a half-life ([3]; male, Gottingen, in vivo, minipig 3M, DMW12, iv 8.5 mg/kg (39.3 μmol/kg), read-out: T½ (converted)) of 3.71 ± 1.72 h. The Vd ([3]; male, Gottingen, in vivo, minipig 3M, DMW12, iv 8.5 mg/kg (39.3 μmol/kg), read-out: Vss) was 11.1 ± 4.2 L/kg, the AUC [3, 10] was 404 ng·h/mL and 1.87 µM·h and the Cmax [3, 10] was 81.3 ng/mL and 376 nM. For the same compound, the Tmax [3, 10] was 1 to 4 h, the F ([3]; minipig 3M, DMW12, oral 16.9 mg/kg vs iv 8.5 mg/kg) was 5.19 ± 2.22% and the half-life ([4]; both sexes, in vivo, rhesus monkey 2M+2F, 03.330/1, iv 0.385 mg/kg (1.78 μmol/kg)) was 1.76 ± 0.43 h. For the same compound, the clearance [4, 11] was 14.2 mL/min/kg, the half-life [4, 11] was 1.96 ± 0.63 h and the Vd [4, 11] was 2.52 ± 1.64 L/kg. For the same compound, the clearance [4, 12] was 14.5 mL/min/kg, the half-life [4, 12] was 2.14 ± 0.39 h and the Vd [4, 12] was 2.85 ± 1.6 L/kg. The AUC [4, 13] was 634 ± 81 ng·h/mL, the Tmax [4, 13] was 0.25 h and the Cmax ([4]; both sexes, plasma, im, rhesus monkey 2F+2M, A7AGBU1006, intramuscular 1.7 mg/kg (8 μmol/kg), read-out: Cmax) was 430 ng/mL and 1.99 µM. It also gave a half-life [4, 13] of 0.97 ± 0.12 h, a clearance [4, 14] of 21 mL/min/kg and a Vd [4, 14] of 3.29 ± 2.32 L/kg. For the same compound, the Tmax [4, 15] was 0.25 h, the Cmax ([4]; male, plasma, im, rhesus monkey 3M, A7AGBU1010, intramuscular 0.048 mg/kg (0.22 μmol/kg), read-out: Cmax) was 16.1 ng/mL and 74.6 nM and the half-life [4, 15] was 0.85 ± 0.23 h. For the same compound, the “estimated peak plasma concentrations” value ([4]; monkeys, 0.00048-0.016 mg per kg) was 0.6 to 18 nM, the Cmax ([4]; rhesus monkey, plasma, intramuscular, 0.016 mg/kg, rhesus monkeys, read-out: Cmax at NOAEL for behavioral side effects) was 18 nM and the “estimated free plasma Cmax” value ([4]; rhesus monkeys, 0.016 mg/kg (NOAEL)) was 18 nM. For the same compound, the “duration of improved SDR performance after a single dose” value (rhesus monkeys; four of nine monkeys, middle doses (0.0016 and 0.00048 mg/kg im)) was “more than one month”, the “higher doses with no effect or transiently impaired SDR performance” value (rhesus monkeys; rhesus monkeys) was at least 0.016 mg/kg and the “lower doses with no effect or transiently impaired SDR performance” value (rhesus monkeys; rhesus monkeys) was at most 0.00016 mg/kg. For the same compound, the “percent correct responses (SDR)” value (rhesus monkeys; rhesus monkeys, 0.016 mg/kg) was “non-significant increase” and the mutagenicity (Ames test) was “not mutagenic”.
